Data from US20150064221A1, “COMPOUNDS HAVING IMMUNOMUDULATOR ACTIVITY” (priority 2012, published 2015).
Read-outs that look alike come from different tables or passages of the source.

Legend:
DNBS-induced colitis = details: DNBS model; Mangano et al. 2008; cited from earlier work
Oral absorption in dogs = type: in vivo
Description: (§1) The highest plasma concentrations generally occurred in 1-2 hours. […] The highest level of inhibition was ˜35% for 2C19 at a 30 μM concentration. […] Lastly, VGX-1027 is stable in human liver S9 fractions (with phase 1 and 2 cofactors) with t1/2>90 minutes, which indicates a low likelihood of metabolism in the liver.

CYP450 2C19 = CYP450 2C19 (Homo sapiens, UniProt P33261); assay: CYP450 inhibition; type: in vitro ADME; details: 2C19
Description: as §1

CYP450 2C9 = CYP450 2C9 (Homo sapiens, UniProt P11712); assay: CYP450 inhibition; type: in vitro ADME
Description: as §1

CYP450 3A4 = CYP450 3A4 (Homo sapiens, UniProt P08684); assay: CYP450 inhibition; type: in vitro ADME
Description: as §1

CYP450 1A2 = CYP450 1A2 (Homo sapiens, UniProt P05177); assay: CYP450 inhibition; type: in vitro ADME
Description: as §1

CYP2C19 = CYP2C19 (Homo sapiens, UniProt P33261); assay: CYP450 inhibition; type: in vitro ADME; details: human; 2C19 at 30 μM; read-out: highest level of inhibition
Description: as §1

CYP450 2D6 = CYP450 2D6 (Homo sapiens, UniProt P10635); assay: CYP450 inhibition; type: in vitro ADME
Description: as §1

p38 and 1-kBα = assay: LPS-induced signalling pathway phosphorylation; type: cell-based
Description: (A) Thioglycollate-elicited macrophages (1×10^6/ml) were stimulated with either LPS (5 μg/ml), zymosan (ZYM, 50 μg/ml), MDP (25 μg/ml), or Poly(I:C) (50 μg/ml) in the presence or absence of VGX-1027 (10 μg/ml). TNF-α was measured 48 hours post treatment. (B) Relative phosphorylations of 1-κBα and p38 were measured at the indicated time points following stimulation with LPS (5 μg/ml). The y-axis is presented as fold change in comparison to the values obtained from LPS-treated cultures alone. * p<0.05.
(Jiang et al., J. Biol. Chem., (278) 16713-16719 (2003). In addition, it was observed that VGX-1027 inhibited LPS-induced phosphorylation of p38 and 1-kBα, indicating VGX-1027 inhibits a protein upstream of both the p38 and NF-κB, signaling pathways (FIG. 4b).

[1] = test system: undifferentiated CD4 T cells; assay: Proliferation of undifferentiated CD4 T cells; type: cell-based
Description: (A) Cell viability was measured via the MTT assay after 48 hours of treatment. (B) TNF-α levels were measured 48 hours post LPS (5 μg/ml) stimulation. (C) CD4 T cells were stimulated with either ConA (10 μg/ml) or anti-CD3/CD28 beads (10 μg/ml), and proliferation was measured via 3H-thymidine incorporation.

[2] = Placebo-controlled ascending single-dose study in healthy subjects (CAT001); type: in vivo, human; details: for Cmax / half-life / AUC / Tmax / AUC(0-t): human, in vivo, oral; for AUC(0-t): read-out: AUC (0-24)
Description: FIG. 21. […] Subjects were administered from 1 mg to 800 mg of VGX1027.
A placebo-controlled, ascending single-dose study was performed to evaluate the safety and pharmacokinetics of VGX-1027 in healthy human subjects. Study was performed upon 7 groups of subjects: group 1: 1 mg of VGX-1027 after fasting; group 2: 10 mg of VGX-1027 after fasting; group 3: 100 mg of VGX-1027 after fasting; group 4: 200 mg of VGX-1027 after fasting; group 5: 400 mg of VGX-1027 after fasting; group 6: 800 mg of VGX-1027 after fasting; and group 7: 100 mg of VGX-1027 after fasting, and after fed.

Oral absorption in mice = type: in vivo
Description: as §1

[3] = Stability in human liver S9 fractions; type: in vitro ADME; details: with phase 1 and 2 cofactors, read-out: t1/2 in human liver S9 fractions
Description: as §1

[4] = test system: splenic mononuclear cells (SMNC); assay: In vitro proliferation and cytokine synthesis of splenic mononuclear cells; type: cell-based, mice
Excerpt: Peritoneal macrophages (PM) and splenic mononuclear cells (SMNC) were isolated from normal mice, cultured in nutrient medium and stimulated with LPS and/or ConA in the absence or presence of VGX-1027. […] VGX-1027 had no effect on MIF expression in either cell type, on proliferation of SMNC, and on IL-10 and Interferon (IFN) γ production by SMNC.

[5] = 1 mg, single dose 1 mg, fasted, geometric mean
[6] = 10 mg, single dose 10 mg, fasted, geometric mean
[7] = 100 mg, Fasted vs Fed: 100 mg fasted, geometric mean
[8] = 100 mg, Fasted vs Fed: 100 mg fed, geometric mean
[9] = 100 mg, single dose 100 mg, fasted, geometric mean
[10] = 200 mg, single dose 200 mg, fasted, geometric mean
[11] = 400 mg, single dose 400 mg, fasted, geometric mean
[12] = 800 mg, single dose 800 mg, fasted, geometric mean

Chain of CYP450 3A4 (P08684 whole entry): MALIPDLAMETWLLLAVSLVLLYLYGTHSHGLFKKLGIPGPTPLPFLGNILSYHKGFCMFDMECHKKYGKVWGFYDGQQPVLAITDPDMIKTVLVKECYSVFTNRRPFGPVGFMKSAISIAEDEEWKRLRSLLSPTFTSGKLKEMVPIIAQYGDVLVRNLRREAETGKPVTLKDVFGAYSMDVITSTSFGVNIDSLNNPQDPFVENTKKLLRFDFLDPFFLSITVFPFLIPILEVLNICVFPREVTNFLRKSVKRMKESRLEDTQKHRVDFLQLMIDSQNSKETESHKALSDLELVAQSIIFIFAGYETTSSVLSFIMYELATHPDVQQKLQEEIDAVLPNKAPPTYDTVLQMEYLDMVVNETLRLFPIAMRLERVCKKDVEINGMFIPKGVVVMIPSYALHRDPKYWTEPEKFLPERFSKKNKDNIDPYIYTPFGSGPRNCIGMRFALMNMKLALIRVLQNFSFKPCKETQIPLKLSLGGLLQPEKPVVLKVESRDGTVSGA
Chain of CYP450 2D6 (P10635 whole entry): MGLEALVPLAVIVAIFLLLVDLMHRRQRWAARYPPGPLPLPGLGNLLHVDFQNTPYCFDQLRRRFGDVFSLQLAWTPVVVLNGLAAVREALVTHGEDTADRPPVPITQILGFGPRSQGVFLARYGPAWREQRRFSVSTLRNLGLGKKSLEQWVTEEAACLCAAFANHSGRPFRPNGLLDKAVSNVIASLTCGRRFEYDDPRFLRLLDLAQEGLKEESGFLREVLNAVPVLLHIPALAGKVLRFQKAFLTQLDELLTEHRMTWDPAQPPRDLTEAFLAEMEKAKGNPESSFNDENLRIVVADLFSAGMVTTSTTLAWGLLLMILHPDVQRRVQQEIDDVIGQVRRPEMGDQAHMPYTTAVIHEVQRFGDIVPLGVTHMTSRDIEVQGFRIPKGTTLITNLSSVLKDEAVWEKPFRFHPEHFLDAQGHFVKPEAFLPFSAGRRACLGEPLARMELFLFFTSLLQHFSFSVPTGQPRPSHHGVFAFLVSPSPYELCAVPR
Chain of CYP450 2C9 (P11712 whole entry): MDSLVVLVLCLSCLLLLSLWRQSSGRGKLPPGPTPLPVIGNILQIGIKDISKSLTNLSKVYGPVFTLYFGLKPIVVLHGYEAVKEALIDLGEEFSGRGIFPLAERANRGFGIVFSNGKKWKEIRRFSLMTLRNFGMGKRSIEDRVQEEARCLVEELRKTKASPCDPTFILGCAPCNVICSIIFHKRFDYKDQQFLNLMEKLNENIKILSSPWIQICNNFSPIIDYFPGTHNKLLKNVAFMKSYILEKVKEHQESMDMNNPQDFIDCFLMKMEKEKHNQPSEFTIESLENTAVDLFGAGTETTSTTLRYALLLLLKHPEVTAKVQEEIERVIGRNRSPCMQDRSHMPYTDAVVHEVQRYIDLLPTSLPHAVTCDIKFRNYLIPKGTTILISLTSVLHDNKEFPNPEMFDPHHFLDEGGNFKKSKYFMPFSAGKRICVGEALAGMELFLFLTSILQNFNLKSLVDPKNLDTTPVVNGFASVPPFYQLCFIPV
Chain of CYP450 1A2 (P05177 whole entry): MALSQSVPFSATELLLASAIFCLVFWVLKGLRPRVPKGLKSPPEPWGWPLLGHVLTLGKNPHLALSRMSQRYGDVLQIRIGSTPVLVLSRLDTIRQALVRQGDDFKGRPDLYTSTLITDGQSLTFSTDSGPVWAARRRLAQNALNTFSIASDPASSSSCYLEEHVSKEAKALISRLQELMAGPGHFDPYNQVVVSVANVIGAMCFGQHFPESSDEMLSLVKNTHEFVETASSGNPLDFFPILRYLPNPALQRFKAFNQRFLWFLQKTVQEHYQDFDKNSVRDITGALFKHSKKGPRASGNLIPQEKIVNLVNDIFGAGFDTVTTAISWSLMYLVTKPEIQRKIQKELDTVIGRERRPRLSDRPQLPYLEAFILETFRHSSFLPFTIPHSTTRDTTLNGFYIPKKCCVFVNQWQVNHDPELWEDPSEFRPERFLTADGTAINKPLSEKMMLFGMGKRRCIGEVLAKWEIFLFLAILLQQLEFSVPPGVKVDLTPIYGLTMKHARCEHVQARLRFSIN
Chain of CYP450 2C19 (P33261 whole entry): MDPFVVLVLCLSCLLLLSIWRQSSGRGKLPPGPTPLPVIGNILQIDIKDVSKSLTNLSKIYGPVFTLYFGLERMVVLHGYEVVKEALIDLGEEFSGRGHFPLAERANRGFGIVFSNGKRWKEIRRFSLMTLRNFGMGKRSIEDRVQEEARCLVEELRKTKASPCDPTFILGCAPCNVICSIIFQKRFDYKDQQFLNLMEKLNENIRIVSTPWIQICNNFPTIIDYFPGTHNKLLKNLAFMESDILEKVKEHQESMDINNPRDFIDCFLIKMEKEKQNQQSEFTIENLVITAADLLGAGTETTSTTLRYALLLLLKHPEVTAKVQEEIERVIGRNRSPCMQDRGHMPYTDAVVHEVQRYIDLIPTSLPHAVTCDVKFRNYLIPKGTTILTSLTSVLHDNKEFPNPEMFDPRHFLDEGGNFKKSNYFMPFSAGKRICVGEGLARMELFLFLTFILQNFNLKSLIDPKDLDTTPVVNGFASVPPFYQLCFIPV
Chain of CYP2C19 (P33261 whole entry): as above

SMILES: O=C(O)CC1CC(c2ccccc2)=NO1 (stereo not drawn) [VGX-1027, 3-phenyl-4,5-dihydro-5-isoxazoleacetic acid]
- colonic production of proinflammatory cytokines (IL-1β, TNF-α, IL-12p70, IFN-γ) (DNBS-induced colitis): reduced colonic production
- oral absorption (Oral absorption in dogs): rapidly absorbed
- time of highest plasma concentrations (Oral absorption in dogs): 1 to 2 h
- CYP450 inhibition (CYP450 2C19): no significant inhibition
- CYP450 inhibition (CYP450 2C9): no significant inhibition
- CYP450 inhibition (CYP450 3A4): no significant inhibition
- CYP450 inhibition (CYP450 1A2): no significant inhibition
- inhibition at 30 µM (CYP2C19): ~35%
- CYP450 inhibition (CYP450 2D6): no significant inhibition
- ERK pathway (p38 and 1-kBα): up-regulation
- phosphorylation of 1-kBα (p38 and 1-kBα; LPS-induced): inhibited
- phosphorylation of p38 (p38 and 1-kBα; LPS-induced): inhibited
- proliferation ([1]; CD3/CD28 stimulation): affected neither
- INF-γ production ([1]; ConA stimulation): affected neither
- proliferation ([1]; ConA stimulation): affected neither
- Grade 3 or 4 AEs ([2]; human studies): No Grade 3 or 4 AEs were reported
- SAEs ([2]; human studies): no SAEs were reported
- Cmax [2, 5]: 50 ng/mL
- half-life [2, 5]: 7.2 h
- AUC ([2]; 1 mg, single dose 1 mg, fasted, geometric mean, read-out: AUC): 460 ng·h/mL
- Tmax ([2]; 1 mg, single dose 1 mg, fasted, median): 1 h
- Cmax [2, 6]: 1100 ng/mL
- half-life [2, 6]: 4.9 h
- AUC ([2]; 10 mg, single dose 10 mg, fasted, geometric mean, read-out: AUC): 4430 ng·h/mL
- Tmax ([2]; 10 mg, single dose 10 mg, fasted, median): 0.5 h
- Cmax [2, 7]: 6500 ng/mL
- half-life [2, 7]: 5.9 h
- AUC ([2]; 100 mg, Fasted vs Fed: 100 mg fasted, geometric mean, read-out: AUC): 37800 ng·h/mL
- Tmax ([2]; 100 mg, Fasted vs Fed: 100 mg fasted, median): 1.25 h
- Cmax [2, 8]: 4600 ng/mL
- half-life [2, 8]: 6.3 h
- AUC ([2]; 100 mg, Fasted vs Fed: 100 mg fed, geometric mean, read-out: AUC): 55700 ng·h/mL
- Tmax ([2]; 100 mg, Fasted vs Fed: 100 mg fed, median): 3.5 h
- Tmax ([2]; 100 mg, Single Dose (CAT001) 100 mg): 1.8 h
- Cmax ([2]; 100 mg, Single Dose (CAT001) 100 mg, Geo Mean): 9070 ng/mL
- Cmax [2, 9]: 9100 ng/mL
- half-life [2, 9]: 8.8 h
- AUC ([2]; 100 mg, single dose 100 mg, fasted, geometric mean, read-out: AUC): 74600 ng·h/mL
- Tmax ([2]; 100 mg, single dose 100 mg, fasted, median): 1.75 h
- Tmax ([2]; 200 mg, Single Dose (CAT001) 200 mg): 1.5 h
- Cmax ([2]; 200 mg, Single Dose (CAT001) 200 mg, Geo Mean): 15700 ng/mL
- AUC ([2]; 200 mg, Single Dose (CAT001) 200 mg, Geo Mean, read-out: AUC (AUC to 12 hours)): 78500 ng·h/mL
- Cmax [2, 10]: 15700 ng/mL
- half-life [2, 10]: 7.7 h
- AUC ([2]; 200 mg, single dose 200 mg, fasted, geometric mean, read-out: AUC): 111000 ng·h/mL
- Tmax ([2]; 200 mg, single dose 200 mg, fasted, median): 1.5 h
- Cmax [2, 11]: 23800 ng/mL
- half-life [2, 11]: 6.7 h
- AUC ([2]; 400 mg, single dose 400 mg, fasted, geometric mean, read-out: AUC): 155000 ng·h/mL
- Tmax ([2]; 400 mg, single dose 400 mg, fasted, median): 1.25 h
- Cmax [2, 12]: 43200 ng/mL
- half-life [2, 12]: 7.9 h
- AUC ([2]; 800 mg, single dose 800 mg, fasted, geometric mean, read-out: AUC): 330000 ng·h/mL
- Tmax ([2]; 800 mg, single dose 800 mg, fasted, median): 2 h
- AUC(0-t) ([2]; Single Dose (CAT001) 100 mg, Geo Mean): 66800 ng·h/mL
- AUC(0-t) ([2]; Single Dose (CAT001) 200 mg, Geo Mean): 98400 ng·h/mL
- tolerability in humans ([2]; oral pill): safe and well-tolerated
- dosing toxicities ([2]; up to 800 mg QD single dose): No dosing toxicities were observed
- oral absorption (Oral absorption in mice): rapidly absorbed
- time of highest plasma concentrations (Oral absorption in mice): 1 to 2 h
- half-life [3]: > 1.5 h
- IL-10 production [4]: no effect
- Interferon (IFN) γ production [4]: no effect
- MIF expression [4]: no effect
- proliferation [4]: no effect
- TNF-α production ([4]; LPS and/or ConA stimulated): markedly inhibited
